Assay results: patent US6392045B1, “9-azobicyclo[3.3.1] non-2-ene derivatives as cholinergic ligands at nicotinic ACH receptors” (NeuroSearch A/S, priority 1997, dated 2002)
Where two headings read alike, the source gives them in different places.

Assays:
[1] = biological target: T1, α4β2 subtype of nicotinic receptors (neuronal nicotinic receptors) (Rattus norvegicus, UniProt P09483+P12390); assay: In vitro inhibition of 3H-epibatidin binding
T1 construct: The forebrain (÷cerebellum) from a male Wistar rat (150-250 g) is homogenized; from tissue; host or cells: rat forebrain (without cerebellum) homogenate (male Wistar)
Method: In Vitro Inhibition of ^3H-epibatidin Binding
The high affinity binding site for ^3H-epibatidin is most certainly binding to the α4β2 subtype of nicotinic receptors. The identity of the low affinity site is still unknown; does it represent a second nicotinic receptor or a second site in the same receptor.
Tissue preparation: Preparations are performed at 0-4° C. unless otherwise indicated. The forebrain (÷cerebellum) from a male Wistar rat (150-250 g) is homogenized for 10-20 sec in 20 ml Tris, HCl (50 mM, pH 7.4) using an Ultra-Turrax homogenizer. The tissue suspension is centrifuged at 27,000×g for 10 min. The supernatant is discarded and the pellet is washed three times by centrifugation at 27,000×g for 10 min in 20 ml fresh buffer, and the final pellet is resuspended in fresh buffer (400 ml per g of original tissue) and used for binding assays.
Assay: Aliquots of 2.0 ml homogenate are added to 0.100 ml of test solution and 0.100 ml of ^3H-epibatidin (0.3 nM, final concentration), mixed and incubated for 60 min at room temperature. Non-specific binding is determined using (−)-nicotine (30 μM, final concentration). After incubation the samples are poured directly onto Whatman GF/C glass fibre filters (presoaked in 0.1% PEI for at least 20 min) under suction and immediately washed with 2×5 ml ice-cold buffer. The amount of radioactivity on the filters is determined by conventional liquid scintillation counting. Specific binding is total binding minus non-specific binding.

[2] = biological target: nAChR formed by the α7 subunit isoform (Rattus norvegicus, UniProt Q05941); assay: biochemical; assay type: binding
[3] = biological target: nAChRs comprised of α4 and β2 subunits (Rattus norvegicus, UniProt P09483+P12390); assay: In vitro inhibition of 3H-cytisine binding
Method: In Vitro Inhibition of ^3H-cytisine Binding
The predominant subtype with high affinity for nicotine is comprised of α4 and β2 subunits. nAChRs of the latter type can selectively be labelled by the nicotine agonist ^3H-cytisine.
Tissue Preparation: Preparations are performed at 0-4° C. unless otherwise indicated. […] The homogenate is centrifuged at 27,000×g for 10 min. The supernatant is discarded and the pellet is resuspended in fresh buffer and centrifuged a second time. The final pellet is resuspended in fresh buffer (35 ml per g of original tissue) and used for binding assays.
Assay: Aliquots of 500 μl homogenate are added to 25 μl of test solution and 25 μl of ^3H-cytisine (1 nM, final concentration), mixed and incubated for 90 min at 2° C. Non-specific binding is determined using (−)-nicotine (100 μM, final concentration). After incubation the samples are added 5 ml of ice-cold buffer and poured directly onto Whatman GF/C glass fibre filters under suction and immediately washed with 2×5 ml ice-cold buffer. The amount of radioactivity on the filters is determined by conventional liquid scintillation counting. Specific binding is total binding minus non-specific binding.

[4] = approximate potency, times that of morphine; cited from earlier work
[5] = read-out: 3H-α-bungarotoxin IC50
[6] = rat forebrain homogenate, 0.3 nM 3H-epibatidin, 60 min at room temperature, read-out: 3H-epibatidin IC50
[7] = rat cerebral cortex homogenate, 1 nM 3H-cytisine, 90 min at 2° C., read-out: 3H-cytisine IC50

Chain of nAChRs comprised of α4 and β2 subunits (P09483 31-630): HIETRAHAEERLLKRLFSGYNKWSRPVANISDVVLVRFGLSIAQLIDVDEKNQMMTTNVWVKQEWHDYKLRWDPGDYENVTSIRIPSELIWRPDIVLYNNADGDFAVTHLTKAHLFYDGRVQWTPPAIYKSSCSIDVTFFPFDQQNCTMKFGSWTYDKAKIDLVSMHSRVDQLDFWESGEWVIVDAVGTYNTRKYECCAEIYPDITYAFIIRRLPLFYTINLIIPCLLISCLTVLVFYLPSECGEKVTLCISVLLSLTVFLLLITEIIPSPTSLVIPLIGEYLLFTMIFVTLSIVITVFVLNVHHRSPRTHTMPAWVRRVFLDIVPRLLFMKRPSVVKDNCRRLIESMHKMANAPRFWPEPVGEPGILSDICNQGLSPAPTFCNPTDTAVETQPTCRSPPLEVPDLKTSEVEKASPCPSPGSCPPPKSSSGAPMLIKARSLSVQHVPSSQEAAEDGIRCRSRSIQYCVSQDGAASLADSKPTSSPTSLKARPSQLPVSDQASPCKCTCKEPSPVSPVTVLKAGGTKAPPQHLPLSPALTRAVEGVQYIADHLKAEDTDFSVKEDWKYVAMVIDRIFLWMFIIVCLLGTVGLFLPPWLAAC
Chain of nAChRs comprised of α4 and β2 subunits (P12390 25-500): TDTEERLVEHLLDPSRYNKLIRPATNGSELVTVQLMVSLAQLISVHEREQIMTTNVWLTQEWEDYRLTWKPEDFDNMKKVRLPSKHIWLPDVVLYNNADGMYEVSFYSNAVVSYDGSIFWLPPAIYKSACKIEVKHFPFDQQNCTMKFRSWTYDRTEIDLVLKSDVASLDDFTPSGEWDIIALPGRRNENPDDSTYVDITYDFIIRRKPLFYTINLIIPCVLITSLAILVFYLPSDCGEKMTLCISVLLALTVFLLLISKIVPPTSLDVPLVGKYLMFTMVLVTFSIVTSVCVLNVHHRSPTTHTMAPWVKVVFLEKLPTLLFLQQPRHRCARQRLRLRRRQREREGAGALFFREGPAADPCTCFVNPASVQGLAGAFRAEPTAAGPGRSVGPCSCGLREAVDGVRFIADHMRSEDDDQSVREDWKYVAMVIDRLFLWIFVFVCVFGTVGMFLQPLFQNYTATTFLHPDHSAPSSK
T1 sequence (P09483 31-630): as the sequence (P09483 31-630) above
T1 sequence (P12390 25-500): as the sequence (P12390 25-500) above
Chain of nAChR formed by the α7 subunit isoform (Q05941 23-502): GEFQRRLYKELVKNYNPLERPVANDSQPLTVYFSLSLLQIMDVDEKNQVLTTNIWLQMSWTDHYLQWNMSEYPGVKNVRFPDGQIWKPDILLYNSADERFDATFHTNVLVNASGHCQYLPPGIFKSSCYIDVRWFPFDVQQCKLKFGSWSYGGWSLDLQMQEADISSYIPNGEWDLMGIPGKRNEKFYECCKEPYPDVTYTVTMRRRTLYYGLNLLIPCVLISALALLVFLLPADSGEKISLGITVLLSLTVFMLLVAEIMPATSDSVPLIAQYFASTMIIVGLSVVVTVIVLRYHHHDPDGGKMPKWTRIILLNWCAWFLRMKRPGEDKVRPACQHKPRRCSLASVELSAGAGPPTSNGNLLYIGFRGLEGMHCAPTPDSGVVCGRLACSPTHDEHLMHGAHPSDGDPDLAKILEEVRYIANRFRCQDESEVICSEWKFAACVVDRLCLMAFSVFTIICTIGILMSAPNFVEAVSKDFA

| SMILES | IC50 [1] | IC50 [2, 5] | melting point | IC50 [3] | IC50 [1, 6] | IC50 [2] | IC50 [3, 7] | analgesic potency relative to morphine [4] |
| --- | --- | --- | --- | --- | --- | --- | --- | --- |
| CN1C2C=C(c3cccc([N+](=O)[O-])c3)CC1CCC2.O=C(O)/C=C/C(=O)O (racemic) [Compound 5c, (±)-9-Methyl-3-(3-nitrophenyl)-9-azabicyclo[3.3.1]non-2-ene Fumaric Acid Salt] | 3900 nM | 2200 nM | 133 to 144 °C | 2700 nM | – | – | – | – |
| CN1C2C=C(c3cncnc3)CC1CCC2.O=C(O)/C=C/C(=O)O (racemic) [Compound 1b, (±)-9-Methyl-3-(5-pyrimidyl)-9-azabicyclo[3.3.1]non-2-ene Fumaric Acid Salt] | 52 nM | 1600 nM | 198 to 202 °C | 78 nM | – | – | – | – |
| CN1C2C=C(c3cnc4ccccc4c3)CC1CCC2.O=C(O)/C=C/C(=O)O (racemic) [Compound 6b, (±)-3-(3-Quinolinyl)-9-methyl-9-azabicyclo[3.3.1]non-2-ene Fumaric Acid Salt] | – | – | 195 to 197 °C | – | 8300 nM | 350 nM | 1000 nM | – |
| CN1C2C=C(c3cccc(N)c3)CC1CCC2.O=C(O)/C=C/C(=O)O (racemic) [Compound 1c, (±)-3-(3-Aminophenyl)-9-methyl-9-azabicyclo[3.3.1]non-2-ene Fumaric Acid Salt] | – | – | 174 to 180 °C | – | 180 nM | 220 nM | 40 nM | – |
| CN1[C@@H]2CCC[C@H]1C[C@H](c1cccnc1)C2 [Compound 8a, Exo-9-Methyl-3-(3-pyridyl)-9-azabicyclo[3.3.1]nonane] | 110 nM | 1400 nM | 69 to 70 °C | 18 nM | – | – | – | – |
| Clc1ccc(C2CC3CCC2N3)cn1 (stereo not drawn) [Epibatidine] | – | – | – | – | – | – | – | ~500 times |
